Data as given in PubChem BioAssay (NCI).
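In this assay, cells in 96-well plates receive the compound at five concentrations for 48 hours. Endpoints are linearly interpolated between the surrounding concentrations. GI50 is the concentration that inhibits growth by half. TGI: concentration producing complete growth inhibition.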 Where a SMILES comes first, the peptide text is derived from it. The star is where a group is joined. Boc = CC(C)(C)OC(=O)*; OBn = c1ccc(CO*)cc1

Key:
Test in all cases: DTP human tumour cell line panel, 48 h
[1] = tested on: SF-268 CNS
[2] = tested on: HT29 colon
[3] = tested on: SN12C renal
[4] = tested on: SK-MEL-5 melanoma
[5] = tested on: SK-OV-3 ovarian
[6] = tested on: IGROV1 ovarian
[7] = tested on: A498 renal
[8] = tested on: PC-3 prostate
[9] = tested on: OVCAR-4 ovarian
[10] = tested on: HL-60(TB) leukemia
[11] = tested on: DU-145 prostate
[12] = tested on: OVCAR-3 ovarian
[13] = tested on: RPMI-8226 leukemia
[14] = tested on: NCI-H23 lung

Row | SMILES | TGI [1] [µM] | TGI [2] [µM] | TGI [3] [µM] | TGI [4] [µM] | TGI [5] [µM] | TGI [6] [µM] | TGI [7] [µM] | TGI [8] [µM] | TGI [9] [µM] | TGI [10] [µM] | TGI [11] [µM] | TGI [12] [µM] | TGI [13] [µM] | TGI [14] [µM] | GI50 [13] [µM]
1 | Nc1[nH]c(=S)c2c(N)n[nH]c2c1C(=O)Nc1ccc(Cl)cc1 | > 100 | > 100 | > 100 | > 100 | > 100 | > 100 | > 100 | > 100 | > 100 | > 100 | > 100 | > 100 | > 100 | – | –
2 | CC[C@H]1C=CCC[C@@]2(C[C@@H]3CC[C@@H]4[C@H](C(=O)OCCCCCCCCCCCCCCCC(=O)N(CCCNC(C)=O)C[C@H](CCNC(C)=O)OC(C)=O)[C@]5(CCC[C@@H](C)O5)NC(=[N+]34)N2)O1 | 1.14 | 0.998 | 2.1 | 0.647 | 2.73 | 1.9 | 1.09 | 1.18 | 1.84 | 1.34 | 1.59 | 2.03 | 0.242 | 2.93 | 0.0406
3 | Cc1c(-c2ccc(O)c(O)c2)oc(=O)c2c(O)cccc12 | 50.7 | – | 19.5 | 24.8 | 40.9 | 20.1 | 33.1 | 52.1 | 40.4 | > 100 | 47.2 | 66.1 | 50 | 22 | –
4 | COc1cc(Nc2nc3ccccc3nc2C(C)C)cc(OC)c1OC | > 100 | > 100 | > 100 | > 100 | > 100 | > 100 | > 100 | > 100 | > 100 | > 100 | > 100 | > 100 | > 100 | > 100 | –
5 | COc1ccc(/C=C(/c2ccccc2)c2c(C)cc(C)c(/C(=C\c3ccc(OC)cc3)c3ccccc3)c2N=Nc2cc(C)cc(C)c2)cc1 | > 100 | > 100 | 23.4 | 37.6 | > 100 | > 100 | > 100 | > 100 | > 100 | > 42.4 | > 100 | 30.2 | > 100 | > 83.8 | –
6 | C[N+](C)(C)C(C1=CCCC1=O)c1ccccc1 (configuration not stated) | 60.1 | 56 | 44 | > 100 | > 100 | > 100 | > 100 | > 100 | > 100 | 66.5 | > 100 | > 100 | 44.2 | > 100 | –
7 | CC(=O)OCCOCCN1CCN(c2c(O)c3c(c(O)c2Cl)C(=O)C=CC3=O)CC1 | 3.62 | 2.17 | 1.77 | 2.97 | 6.06 | 3.04 | 3.56 | 3.28 | 1.32 | 0.238 | 3.29 | 2 | 1.42 | 1.98 | –
8 | Cc1cc(C)c2c(=O)cc(-c3ccc4ccccc4c3)[nH]c2n1 | > 100 | 59.8 | > 100 | 9.42 | > 100 | 99.7 | 24.1 | > 100 | > 100 | 16.4 | > 100 | > 100 | 27.8 | > 100 | –
9 | CNc1nc2c(C)ccc3[nH]c(N(C)C)nc3c-2n1 | > 100 | > 100 | > 100 | 50.3 | > 100 | > 100 | > 100 | > 100 | 80.9 | 69.5 | > 100 | > 100 | 61.2 | > 100 | –
10 | Cc1ccc(C)c(COCCOCn2c(=O)[nH]c(=O)c3cc(Br)ccc32)c1 | > 100 | > 100 | > 100 | – | > 100 | > 100 | > 100 | > 100 | > 100 | > 100 | > 100 | > 100 | – | > 100 | –
11 | CC(=O)OC(=C(C#N)C#N)c1nccnc1C(C)=O | 7.67 | 8.94 | > 20 | > 20 | > 20 | > 20 | > 20 | > 20 | > 20 | > 20 | > 20 | > 20 | – | > 20 | –
12 | COc1cc(C(=O)OCCn2[nH]c(-c3ccc(Cl)cc3)nc2=S)cc(OC)c1OC | > 100 | > 100 | > 100 | > 100 | > 100 | – | > 100 | > 100 | > 100 | > 100 | > 100 | > 100 | – | > 100 | –
13 | NC(=O)CNC(=O)[C@@H]1C[C@@H](OCCC(=O)O)CN1C(=O)OCc1ccccc1 | > 100 | > 100 | > 100 | > 100 | > 100 | > 100 | > 100 | > 100 | > 100 | > 100 | > 100 | > 100 | > 100 | > 100 | –
14 | CN(C)Cc1cc(C(=O)/C=C/c2ccc(F)cc2)cc(CN(C)C)c1O | 63.9 | > 100 | > 100 | 35.5 | – | > 100 | 94.8 | > 100 | > 100 | 35.4 | > 100 | 50.9 | > 100 | > 100 | –
15 | COC(=O)c1ccc(C)cc1CC1Cc2c(C)cccc2C1=O (configuration not stated) | 44.7 | 11.1 | 28.2 | 19.7 | 43.2 | 80.1 | 24 | > 34.6 | > 91.9 | 24.2 | > 81.9 | 16.1 | 30.3 | > 46.6 | –
16 | O=S(=O)(/N=C(\NO)Nc1ccc(Cl)cc1)C1CC=C(c2ccon2)S1 (configuration not stated) | > 84.4 | > 100 | 98.9 | > 62.1 | > 100 | > 72.3 | > 75.9 | > 100 | > 100 | 35.6 | > 100 | > 100 | > 50.3 | > 100 | –
17 | COc1ccc(N(C(=O)NCCO)c2ccccc2)cc1 | > 100 | > 100 | > 100 | > 100 | > 100 | > 100 | > 100 | > 100 | > 100 | > 100 | > 100 | > 100 | > 100 | > 100 | –

Row | SMILES | TGI [1] [µM] | TGI [2] [µM] | TGI [3] [µM] | TGI [4] [µM] | TGI [5] [µM] | TGI [6] [µM] | TGI [7] [µM] | TGI [8] [µM] | TGI [9] [µM] | TGI [10] [µM] | TGI [11] [µM] | TGI [12] [µM] | TGI [13] [µM] | TGI [14] [µM] | GI50 [13] [µM]
18 | CCOP(C)(=O)/C(Cc1ccc(OC)c(OC)c1)=N\O (configuration not stated) | – | > 100 | > 100 | > 100 | > 100 | > 100 | > 100 | > 100 | > 100 | > 100 | > 100 | > 100 | > 100 | > 100 | –
19 | Cc1[nH]c(=O)nc(N(CCO)/N=C/c2ccc(Cl)cc2)c1C(=O)Nc1ccc(Cl)cc1 | > 100 | > 100 | > 100 | > 100 | > 100 | > 100 | > 100 | > 100 | > 100 | > 100 | > 100 | > 100 | – | > 100 | –
20 | CCCCCCCCCCCCCCCCOc1ccc(/C=C/C2=[N+](CCCl)CCO2)cc1 | – | > 100 | > 100 | > 100 | > 100 | > 100 | > 100 | > 100 | > 100 | 98.6 | > 100 | > 100 | > 100 | – | –
21 | CC(=O)N(C(C)=O)n1nc2c(n1)C(=O)c1ccccc1C2=O | > 100 | > 100 | > 100 | > 100 | > 100 | > 100 | > 100 | > 100 | > 100 | > 100 | > 100 | > 100 | > 100 | > 100 | –
22 | Cc1nc2ccccc2c(=O)n1/N=C/c1ccc(N(C)C)cc1 | > 100 | > 100 | > 100 | > 100 | > 100 | > 100 | > 100 | > 100 | > 100 | > 100 | > 100 | > 100 | > 100 | > 100 | –
23 | Nc1ccc(OCCCc2c(-c3ccccc3)nc(N)[nH]c2=O)cc1 | > 100 | > 100 | > 100 | > 100 | > 100 | > 100 | > 100 | > 100 | > 100 | > 100 | > 100 | > 100 | > 100 | > 100 | –
24 | Cc1ccc(NC(=O)/C(=N\NC(N)=O)c2c(O)c3ccccc3[nH]c2=O)cc1 | > 100 | > 100 | > 100 | > 100 | > 100 | – | > 100 | > 100 | > 100 | > 100 | > 100 | > 100 | > 100 | > 100 | –
25 | CC(=O)OC1[C@@H](OC(C)=O)CN(OCc2ccccc2)C[C@H]1OC(C)=O (some centres not stated) | > 100 | > 100 | > 100 | > 100 | 76.4 | > 100 | > 100 | > 100 | > 100 | > 100 | > 100 | > 100 | > 100 | > 100 | –
26 | CC(=O)OC1[C@H](n2ccnc2)C[C@H]2[C@@H]3CC=C4CC(N5CCCC5)CC[C@]4(C)[C@H]3CC[C@]12C (some centres not stated) | > 100 | > 100 | > 100 | > 100 | – | > 100 | > 100 | > 100 | > 100 | 81.3 | > 100 | > 100 | > 100 | > 100 | –
27 | CC(C)CC(NC(=O)C(Cc1ccccc1)NC(=O)C(Cc1ccccc1)NC(=O)OC(C)(C)C)C(=O)OCc1ccccc1 (stereo not drawn) (Boc-Phe-Phe-Leu-OBn; configuration not given here) | > 100 | > 100 | > 100 | > 100 | > 100 | > 100 | > 100 | > 100 | – | > 100 | > 100 | > 100 | > 100 | > 100 | –
28 | O=c1[nH]c(=O)n2n1C1C=CC2CC1 | > 100 | > 100 | > 100 | > 100 | > 100 | > 100 | > 100 | > 100 | – | > 100 | > 100 | > 100 | > 100 | > 100 | –
29 | COCn1c(C)c(C)c2c(=O)oc(C)nc21 | > 100 | > 100 | > 100 | > 100 | > 100 | > 100 | > 100 | > 100 | > 100 | > 100 | > 100 | – | > 100 | > 100 | –
30 | CC(C)(SCc1ccccc1)C(N)C(=O)O (configuration not stated) | > 100 | > 100 | > 100 | > 100 | – | > 100 | > 100 | > 100 | > 100 | > 100 | > 100 | > 100 | > 100 | > 100 | –
31 | COc1ccc(-c2nc3cc(C(F)(F)F)ccc3n2CC2CCCN3CCCCC23)cc1 (configuration not stated) | 28.6 | 26.1 | – | 27.5 | 33.7 | 26.9 | 26.2 | 26.5 | 39.7 | 30.6 | 30.8 | 37.1 | 28.4 | 29 | –
32 | Cc1cc(=O)c2ccccc2n1CCCCCCCCCCn1c(C)cc(=O)c2ccccc21 | 89.4 | 29.9 | 43.3 | 6.27 | 35.3 | 43.8 | 28.9 | > 100 | 44.1 | 15.1 | 41.9 | > 100 | – | 30.9 | –
33 | O=C1CCCC[C@H]1C(O)CC1CC(=O)N(c2ccccc2)C(=O)C1 (some centres not stated) | > 100 | > 100 | > 100 | > 100 | – | > 100 | > 100 | > 100 | > 100 | > 100 | > 100 | > 100 | > 100 | > 100 | –
